Source: US20050209278A1, “Piperidinyl- and piperazinyl-sulfonylmethyl hydroxamic acids and their use as protease inhibitors” (priority 2002, published 2005)
“And” between values parts separate entries of the source, which are not always exact repeats. Equal values may be shown once.

Tests used:
[1] = molecular target: T1, MMP-2 (Homo sapiens, UniProt P08253); test: In vitro MMP inhibition, Ki determination (fluorogenic substrate II); type: biochemical; conditions: value outside parentheses; read-out: MMP-2 Ki
T1 construct: made in house; host or cells: MMP-2-transfected p2AHT2 cells
T1 sequence (P08253 110-660): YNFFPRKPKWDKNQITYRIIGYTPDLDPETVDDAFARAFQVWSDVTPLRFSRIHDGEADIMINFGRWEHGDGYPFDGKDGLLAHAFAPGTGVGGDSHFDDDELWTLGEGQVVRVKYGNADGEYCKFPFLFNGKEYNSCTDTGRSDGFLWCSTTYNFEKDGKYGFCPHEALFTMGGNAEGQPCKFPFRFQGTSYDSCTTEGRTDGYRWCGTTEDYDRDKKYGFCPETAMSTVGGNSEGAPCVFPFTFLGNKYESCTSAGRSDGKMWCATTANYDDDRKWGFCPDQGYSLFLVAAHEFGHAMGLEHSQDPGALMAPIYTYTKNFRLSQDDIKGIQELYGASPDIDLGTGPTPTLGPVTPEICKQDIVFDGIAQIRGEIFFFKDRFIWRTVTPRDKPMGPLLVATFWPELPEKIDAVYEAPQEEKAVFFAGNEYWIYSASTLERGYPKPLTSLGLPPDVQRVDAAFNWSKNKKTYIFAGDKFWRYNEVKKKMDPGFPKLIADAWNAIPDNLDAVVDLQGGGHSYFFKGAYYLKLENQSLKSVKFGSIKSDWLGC

[2] = molecular target: T2, MMP-14 (Homo sapiens, UniProt P50281); test: as above; type: biochemical; conditions: value outside parentheses; read-out: MMP-14 Ki
T2 construct: The catalytic domain enzyme was expressed in E. coli inclusion bodies, solubilized in urea; made in house
Procedure, shortened: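 E. coli-expressed, refolded MMP-14 catalytic domain, activated with APMA or trypsin, in 100 mM Tris-HCl pH 7.5, 100 mM NaCl, 10 mM CaCl2, 0.05% Brij-type detergent. Apparent Ki by Morrison-equation regression of velocity vs inhibitor and enzyme concentration.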

Row | SMILES | Ki [1] | Ki [2]
1 | O=C(NO)C1(S(=O)(=O)N2CCC(c3ccc(CCCC(F)(F)F)cn3)CC2)CCOCC1 [Example 338] | 1.09 nM | 1330 nM
2 | O=C(NO)C1(S(=O)(=O)N2CCN(c3ccc(-c4cccc(OC(F)(F)F)c4)cn3)CC2)CCOCC1 [Example 319] | 33.1 nM | > 10000 nM
3 | O=C(NO)C1(S(=O)(=O)N2CCC(c3ccc(OC(F)(F)C(F)F)cc3)CC2)CCOCC1 [Example 337] | 0.427 nM | 1610 nM
4 | O=C(NO)C1(S(=O)(=O)N2CCC(COCC(F)(F)C(F)(F)C(F)(F)C(F)F)CC2)CCOCC1 [Example 378] | 24.8 nM | > 10000 nM
5 | O=C(NO)C1(S(=O)(=O)N2CCC(c3ccc(CCC(F)(F)C(F)(F)F)cn3)CC2)CCOCC1 [Example 340] | 0.26 nM | 1300 nM
6 | N#Cc1cccc(-c2cnc(N3CCN(S(=O)(=O)C4(C(=O)NO)CCOCC4)CC3)s2)c1 [Example 384] | 0.185 nM | 867 nM
7 | O=C(NO)C1(S(=O)(=O)N2CCN(c3ccc(-c4ccc(OC(F)(F)F)cc4)cc3)CC2)CCOCC1 [Example 327] | 0.97 nM | 1370 nM
8 | O=C(NO)C1(S(=O)(=O)N2CCC(c3ccc(OCC(F)(F)C(F)F)cc3)CC2)CCN(C2CC2)CC1 [Example 350] | 0.891 nM | 4470 nM
9 | CCN1CCC(C(=O)NO)(S(=O)(=O)N2CCN(c3ccc(-c4ccccc4)c(F)c3)CC2)CC1 [Example 341] | 0.829 nM | 4300 nM
10 | CC(C)(C)c1ccc(-c2cnc(N3CCN(S(=O)(=O)C4(C(=O)NO)CCOCC4)CC3)s2)cc1 [Example 347] | 8.57 nM | 84.6 nM
11 | O=C(NO)C1(S(=O)(=O)N2CCC(c3ccc(-c4cccnc4)cn3)CC2)CCOCC1 [Example 390] | 12.3 nM | > 10000 nM
12 | CCCCc1ccc(C2CCN(S(=O)(=O)C3(C(=O)NO)CCNCC3)CC2)nc1 [Example 388] | 11.2 nM | > 10000 nM
13 | COc1ccccc1-c1ccc(N2CCN(S(=O)(=O)C3(C(=O)NO)CCOCC3)CC2)nc1 [Example 318] | 79 nM | 1490 nM
14 | Cc1ccc(-c2cnc(N3CCN(S(=O)(=O)C4(C(=O)NO)CCOCC4)CC3)s2)cc1 [Example 344] | 0.177 nM | 75 nM
15 | O=C(NO)C1(S(=O)(=O)N2CCC(c3ccc(OCC(F)(F)F)cc3)CC2)CCOCC1 [Example 357] | 0.919 nM | 2290 nM
16 | O=C(NO)C1(S(=O)(=O)N2CCN(c3ccc(CCCC(F)(F)F)cn3)CC2)CCOCC1 [Example 358] | 0.281 nM | 2950 nM
17 | O=C(NO)C1(S(=O)(=O)N2CCN(c3ncc(-c4cccc(-c5ccccc5)c4)s3)CC2)CCOCC1 [Example 365] | 201 nM | > 10000 nM
18 | O=C(NO)C1(S(=O)(=O)N2CCN(c3ccc(-c4ccccc4)cn3)CC2)CCOCC1 [Example 372] | 0.451 nM and 0.479 nM | 462 nM and 470 nM
19 | CCCCCc1cccc(N2CCN(S(=O)(=O)C3(C(=O)NO)CCOCC3)CC2)c1 [Example 356] | 65.7 nM | 3420 nM
20 | O=C(NO)C1(S(=O)(=O)N2CCN(c3ncc(-c4cccnc4)s3)CC2)CCOCC1 [Example 382] | 0.68 nM | 778 nM
21 | O=C(NO)C1(S(=O)(=O)N2CCN(c3cnn(-c4ccccc4)c(=O)c3Cl)CC2)CCOCC1 [Example 329] | > 10000 nM | > 10000 nM
22 | O=C(NO)C1(S(=O)(=O)N2CCN(c3ccc(-c4ccc(F)cc4F)cn3)CC2)CCOCC1 [Example 316] | 0.73 nM | 910 nM
23 | COc1ccc(-c2cnc(N3CCN(S(=O)(=O)C4(C(=O)NO)CCOCC4)CC3)s2)cc1OC [Example 371] | 4.14 nM | 1590 nM
